Test results: PMC12340436 (The Journal of Biological Chemistry, 2025)

Columns and labels:
RhsP2tox [1] = biological target: T1, RhsP2tox (Pseudomonas aeruginosa, UniProt A0A0H2Z8A2); format: binding
T1 construct: gene PA14_43100; N-terminal His tag

RhsP2tox [2] = biological target: T2, RhsP2tox (Pseudomonas aeruginosa, UniProt A0A0H2Z8A2, E1576Q); test: biochemical
T2 construct: gene PA14_43100

## NC(=O)c1ccc[n+]([C@@H]2O[C@H](COP(=O)(O)OP(=O)(O)OC[C@H]3O[C@@H](n4cnc5c(N)ncnc54)[C@H](O)[C@@H]3O)[C@@H](O)[C@H]2O)c1 [NAD^+]
RhsP2tox [1]
  Kd: 172 ± 25 µM
RhsP2tox [2]
  Kd: 130 ± 38 µM
